Experimental data from patent publication US5962533A, “Hydroxy polyamines” (priority 1996, dated 1999).
pIC50, pKi: −log10 of the molar value. Values joined by “and” are separate entries in the source; they are usually repeats but may differ in a detail not shown here. Equal values may be shown once. Where a name gives a salt, the structure may show the parent alone. Read-outs that look alike come from different tables or passages of the source.

Tests used:
[1] = Acute toxicity, single intraperitoneal injection; settings: 325 mg/kg intraperitoneal, five female CD-1 mice
NMDA receptor = test: NMDA assay: specific [3H]MK-801 binding to washed rat cerebral cortical membranes; settings: 100 μm L-glutamate, 100 μm glycine, 2 nm [3H]MK-801
Source text: FIG. 4 depicts the effects of (HO)2 DEHSPM and DEHSPM on the NMDA receptor (MK-801 binding). Each data point represents the mean ±s.d. of three experiments. Each experiment was, in turn, performed in triplicate. "100% activity" is defined as the amount of specific MK-801 binding to washed rat cerebral cortical membranes in the presence of saturating concentrations of coagonists (100 μm L-glutamate, 100 μm glycine) and 2 nm [^3 H]MK-801.
NMDA Assay. The procedure for measuring specific binding of [^3 H]MK-801 to the N-methyl-D-aspartate receptor complex was a modification of the method of Ransom and Stec [J. Neurochem., Vol. 51, pages 830-836 (1988)]. Cerebral cortices from young male Sprague-Dawley rats (200-300 g) were homogenized with 10 volumes ice-cold 0.32M sucrose using a motor-driven glass/Teflon homogenizer. The homogenate was centrifuged at 1,000 g for 10 minutes and the pellet was discarded. The supernatant was then centrifuged at 18,000 g for 20 minutes. The 18,000 g pellet was then resuspended in 10 volumes buffer A (5 mm Tris-HCl, pH 7.7) at 4° C., homogenized using high-intensity ultrasound and centrifuged at 8,000 for 20 minutes. The supernatant and upper buffy coat of the pellet were combined and centrifuged at 50,000 g for 20 minutes. The pellet was then resuspended in 10 volumes buffer A and homogenized using high-intensity ultrasound. These resuspended membranes were then centrifuged at 50,000 g, discarding the supernatant. The membranes were washed in this manner an additional three times and stored as a frozen suspension at -80° C. for at least 18 hours, but no longer than 2 weeks before use.
For binding experiments, frozen membranes were thawed, pelleted at 50,000 g for 20 minutes and washed as described above, except that 20 volumes of buffer A were used for resuspension, for a total of four times. The final pellet was resuspended in buffer B (5 mm Tris-HCl, pH 7.5) at 23° C. The binding assay mixture was 1.00 ml buffer B containing 200-300 μg membrane protein, 100 μm L-glutamate, 100 μm glycine, 2 nm [^3 H]MK-801 and tetraamine at the following concentrations: 0 ("100%+L-glu,+gly-Control") and 0.05, 0.1, 0.5, 1, 5, 10, 50, 100, 500 and 1,000 μm. Non-specific binding was determined using 100 μm MK-801.
Binding assays were performed in triplicate at 23° C. for one hour and were terminated by filtration through Whatman GF/B glass fiber filters followed by three 4.0 ml rinses of ice-cold buffer B using a Brandel M-48 Cell Harvester.

[2] = test system: polyamine transport apparatus; test: Competition with radiolabeled spermidine for uptake into L1210 cells (Ki); type: cell-based, Murine; settings: L1210 cells, estimated from Lineweaver-Burke plots, read-out: Ki, [3H]-spermidine transport
Description: The same cell line was utilized to evaluate the tetraamines's competition with radiolabeled spermidine for the polyamine uptake apparatus (Ki). The Ki values here are the concentrations of drugs required to inhibit the uptake of radioactive spermidine transport by 50% (Table 1).
Uptake Determinations. The polyamine derivatives were studied for their ability to compete with [^3 H]SPD or [^14 C]SPD for uptake into L1210 leukemia cells in vitro. Cell suspensions were incubated in 1 ml of RPMI-1640 containing 1, 2, 4, 6, 8 and 10 μm radiolabeled SPD alone or with the additional presence of 10, 25 and 50 μm polyamine analogue for 20 minutes at 37° C. At the end of the incubation period, tubes were centrifuged at 900 g for 5 minutes at 0-4° C. The pellet was washed twice with 5 ml of cold RPMI-1640 containing 1 mm SPD, dissolved in 200 μl of 1N NaOH at 60° C. for 1 hour, and neutralized with 1N HCl. The material was transferred to a vial for scintillation counting.

[3] = Metabolism of (HO)2 DEHSPM v. DEHSPM in mouse liver and kidney (HPLC); type: in vivo
Description: Metabolism of (HO)2 DEHSPM v. DEHSPM in Mouse Liver and Kidney. […] In ease case, animals were sacrificed for HPLC analysis one day after the final dose.
HPLC Analysis of Polyamines. Various tissues including the liver and kidney were prepared for HPLC analysis of polyamine content. In order to facilitate their handling, the organs were submerged in liquid nitrogen. Once frozen and weighed, the tissues were homogenized (Tissuemizer, Tekmar, Cincinnati, Ohio) in 1.2N perchloric acid (containing 1,7-diaminoheptane internal standard) in a 1:20 (w/v) ratio. The tissue homogenates were then freeze-thawed three times and stored in a -70° C. freezer until HPLC analysis was performed.
Each chromatographic assay included calibration standards which were treated in the same manner as the samples. […] The concentration of each polyamine was calculated from the peak area by calibration curves obtained by non-weighted least squares linear regression. Peak area and linear regression calculations were performed on a Macintosh Centris 650 with Rainin Dynamax HPLC Method Manager software (Rainin Instrument Co., Ridgefield, N.J.).

L1210 cells = test: L1210 growth inhibition, IC50 determinations; type: cell-based, Murine
Description: IC50 Determinations. Cells were grown in 25 cm^2 tissue culture flasks in a total volume of 10 ml. Cultures were treated while in logarithmic growth (0.5-1.0×10^5 cells/ml) with the polyamine derivative diluted in sterile water and filtered through a 0.2 μm filter.
After the indicated time periods, cells were removed from the incubator for counting. Cell number was determined by electronic particle counting (Model ZF coulter counter, Coulter Electronics, Hialeah, Fla.) and confirmed periodically with hemocytometer measurements.
The percentage of control growth was determined as follows: [formula]

[4] = 24 h after regimen, normalized for 30 g mouse
[5] = liver and kidneys, 24 h after regimen, 30 g mouse
[6] = mouse, one day after subchronic equimolar i.p. regimen

CCNCC[C@@H](O)CNCCCCNC[C@H](O)CCNCC [(HO)2 DEHSPM, N^1,N^14 -Diethyl-3(R),12(R)-dihydroxyhomospermine tetrahydrochloride]
deaths after single dose [1]: Three of the five animals died | concentration showing agonist activity on MK-801 binding (NMDA receptor): 0.5-1.0 μm | concentrations of maximal antagonism of MK-801 binding (NMDA receptor): ≥ 50 μm | concentrations showing marked antagonist activity on MK-801 binding (NMDA receptor): above 5 μm | pKi ([2]; listed as (OH)2 -DEHSPM): 5.74 | pKi [2]: 5.70 and 5.74 | % of total dose present as total drug + metabolite, Kidneys [3, 4]: 4.04% | % of total dose present as total drug + metabolite, Liver [3, 4]: 5.96% | % of total dose present as unmetabolized parent drug, Kidneys [3, 4]: .357 ± 0.34% | % of total dose present as unmetabolized parent drug, Liver [3, 4]: 3.39 ± 0.48% | Amount of total dose present as dideethylated metabolite HSPM/(HO)2 HSPM, Kidneys [3, 4]: 0.030 µmol | Amount of total dose present as dideethylated metabolite HSPM/(HO)2 HSPM, Liver [3, 4]: 0.166 µmol | Amount of total dose present as total drug + metabolite, Kidneys [3, 4]: 0.261 µmol | Amount of total dose present as total drug + metabolite, Liver [3, 4]: 0.385 µmol | Amount of total dose present as unmetabolized parent drug, Kidneys [3, 4]: 0.231 µmol | Amount of total dose present as unmetabolized parent drug, Liver [3, 4]: 0.219 µmol | % of total dose present as total drug + metabolite, Both Tissues [3, 5]: 10.01% | % of total dose present as unmetabolized parent drug, Both Tissues [3, 5]: 6.96% | Amount of total dose present as dideethylated metabolite HSPM/(HO)2 HSPM, Both Tissues [3, 5]: 0.196 µmol | Amount of total dose present as total drug + metabolite, Both Tissues [3, 5]: 0.646 µmol | Amount of total dose present as unmetabolized parent drug, Both Tissues [3, 5]: 0.450 µmol | level of unchanged drug in kidney [3, 6]: 481±46 nmol/g wet weight | level of unchanged drug in liver [3, 6]: 83.6±11.7 nmol/g wet weight and 84±12 nmol/g wet weight | pIC50 (L1210 cells; Mus musculus, L1210, 96 h, read-out: IC50 96 h, L1210 cells, 96 h): 7.15 | pIC50 (L1210 cells; Mus musculus, read-out: IC50 48 h, L1210 cells, 48 h): 6.22 | pIC50 (L1210 cells; read-out: IC50 96 h, L1210 cells, 96 h): 7.05 to 7.30
